Reference: patent US8680157B2, “Androgen receptor-dependent gene expression control” (Universitaetsklinikum Freiburg, priority 2005, dated 2014)

How the values were obtained:
[1] = system: LSD1-induced activation of AR; experiment: Transient transfection, AR-dependent luciferase reporter with co-expressed LSD1 and AR in 293 cells; format: cell-based; conditions: R1881, 3×10^−3 M pargyline, 1×10^−3 M deprenyl or 1×10^−4 M chlorgyline, 18 hours, FIG. 4e
Description: 293 and CV-1 cells were cultured and transfected as described^13. LNCaP cells were cultured in phenol-red-free RPMI1640 supplemented with 10% double-stripped fetal calf serum (dsFCS) and transfected with Effectene (Qiagen). The following amounts per well were used: MMTV-LUC, ARE2x-TATA-LUC, ARE2x-TK-LUC, TK-LUC, PSA-LUC, Slp-ARU-TATA-LUC 500 ng each, 25 ng expression plasmids for AR; 500 ng expression plasmids for LSD1 1-174, LSD1 175-246, LSD1 247-852, pSUPER-control, and pSUPER-LSD1; 100 to 500 ng expression plasmids for LSD1 were transfected per well. […] Luciferase activity was assayed as described^14. All experiments were repeated at least five times in duplicate.

LSD1 = biological target: T1, LSD1 (Homo sapiens, UniProt O60341); experiment: Chromatin immunoprecipitation (ChIP) at the PSA promoter in LNCaP cells; format: cell-based
T1 construct: endogenous in cells; host or cells: LNCaP
Description: ChIP experiments were performed essentially as described^15. […] LNCaP cells were transfected three days before harvesting for ChIP with or without siRNA (Qiagen) following the manufacture's instructions. Immunoprecipitation was performed with specific antibodies (α-monoMeK9H3, α-diMeK9H3, α-triMeK9H3, α-monoMeK4H3, α-diMeK4H3, α-triMeK4H3, α-H3 (abcam), α-LSD1, and α-AR PG21 (Upstate Biotechnology) on GammaBind™-Sepharose 4B (GE-Healthcare). For PCR, 1-5 μl out of 50 μl DNA extract was used. For Re-ChIP assays, immunoprecipitations were sequentially washed with TSE I, TSE II, buffer III, and TE^15. Complexes were eluted by incubation with 10 mM DTT at 37° C. for 30 min, diluted 50 times with dilution buffer^15 followed by a second immunoprecipitation with the indicated antibody. Primer sequences were as follows: middle; PSA (−2223/−1951) 5′-[…]-3′ and 5′-[…]-3′; PCR primers for ARE I+II (PSA (−459/−121)) and ARE III (PSA (−4288/−3922)) have been described previously^16.

[2] = pargyline, R1881, FIG. 3d and data not shown

C#CCN(C)CCCOc1ccc(Cl)cc1Cl [clorgyline, N-methyl-N-propargyl-3-(2,4-dichlorophenoxy-)propylamine]
LSD1-induced ligand-dependent activation of AR (reporter activity) [1]: severely impair

C#CCN(C)Cc1ccccc1 [pargyline, N-methyl-N-2-propynyl-benzylamine]
LSD1-induced ligand-dependent activation of AR (reporter activity) [1]: severely impair | demethylation of mono- and dimethyl H3-K9 during androgen-induced transcription (LSD1; PSA promoter, pargyline 18 hours, 10^−8 M R1881 210 min, FIG. 3d): blocks | methylation levels of trimethyl H3-K9 (LSD1; PSA promoter, pargyline 18 hours, R1881, FIG. 3d): remains unchanged | methylation status of H3-K27 (LSD1; [2]): remains unchanged | methylation status of H4-K20 (LSD1; [2]): remains unchanged

C#CCN(C)[C@H](C)Cc1ccccc1 [deprenyl, (R)-(−)-N,2-dimethyl-N-2-propynylphenethylamine]
LSD1-induced ligand-dependent activation of AR (reporter activity) [1]: severely impair
